Reference: the supplement of paper PMC10307832

Legend:
Experiment in all cases: relative viability (nuclei count vs DMSO), 5 days (fraction); higher = more cells survive
AZ3146 + Tozasertib = compound: CN1CCC(CC1)OC2=CC(=C(C=C2)NC3=NC=C4C(=N3)N(C(=O)N4C)C5CCCC5)OC [AZ3146] + Cc1cc(Nc2cc(N3CCN(C)CC3)nc(Sc3ccc(NC(=O)C4CC4)cc3)n2)n[nH]1 [Tozasertib] (partner 0.1 µM)
Procedure, shortened: (§1)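 Lung cancer cell lines in 1536-well plates were dosed by pin tool the day after seeding, either with one drug alone or with a fixed anchor-drug dose plus five library-drug doses (not always all listed) in √10 steps. After 5 days, cells were fixed and their nuclei stained in one step (final 0.05% Triton X-100, 1% formaldehyde, 1 ug/ml Hoechst), then counted on 4× images. Relative viability is the nuclei count in treated wells divided by that in vehicle wells. Values are medians of duplicate plates.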

AZ3146 + Olaparib = compound: CN1CCC(CC1)OC2=CC(=C(C=C2)NC3=NC=C4C(=N3)N(C(=O)N4C)C5CCCC5)OC [AZ3146] + O=C(c1cc(Cc2n[nH]c(=O)c3ccccc23)ccc1F)N1CCN(C(=O)C2CC2)CC1 [Olaparib] (partner 8 µM)
Procedure, shortened: as §1

AZ3146 + Luminespib = compound: CN1CCC(CC1)OC2=CC(=C(C=C2)NC3=NC=C4C(=N3)N(C(=O)N4C)C5CCCC5)OC [AZ3146] + CCNC(=O)c1noc(-c2cc(C(C)C)c(O)cc2O)c1-c1ccc(CN2CCOCC2)cc1 [Luminespib] (partner 0.01 µM)
Procedure, shortened: as §1

GSK-J4 + Vorinostat = compound: CCOC(=O)CCNc1cc(N2CCc3ccccc3CC2)nc(-c2ccccn2)n1 [GSK-J4] + O=C(CCCCCCC(=O)Nc1ccccc1)NO [Vorinostat] (partner 1 µM)
Procedure, shortened: as §1

| Cell Line | relative viability (AZ3146 + Tozasertib; first compound 0.08 µM) | relative viability (AZ3146 + Tozasertib; first compound 0.253 µM) | relative viability (AZ3146 + Tozasertib; first compound 0.8 µM) | relative viability (AZ3146 + Tozasertib; first compound 2.53 µM) | relative viability (AZ3146 + Tozasertib; first compound 8 µM) | relative viability (AZ3146 + Olaparib; first compound 0.08 µM) | relative viability (AZ3146 + Olaparib; first compound 0.253 µM) | relative viability (AZ3146 + Olaparib; first compound 0.8 µM) | relative viability (AZ3146 + Olaparib; first compound 2.53 µM) | relative viability (AZ3146 + Olaparib; first compound 8 µM) | relative viability (AZ3146 + Luminespib; first compound 0.08 µM) | relative viability (AZ3146 + Luminespib; first compound 0.253 µM) | relative viability (AZ3146 + Luminespib; first compound 0.8 µM) | relative viability (AZ3146 + Luminespib; first compound 2.53 µM) | relative viability (AZ3146 + Luminespib; first compound 8 µM) | relative viability (GSK-J4 + Vorinostat; first compound 0.5 µM) | relative viability (GSK-J4 + Vorinostat; first compound 1.581 µM) | relative viability (GSK-J4 + Vorinostat; first compound 5 µM) | relative viability (GSK-J4 + Vorinostat; first compound 15.81 µM) | relative viability (GSK-J4 + Vorinostat; first compound 50 µM) |
| --- | --- | --- | --- | --- | --- | --- | --- | --- | --- | --- | --- | --- | --- | --- | --- | --- | --- | --- | --- | --- |
| NCI-H596 | 0.949 | 0.972 | 0.979 | 0.728 | 0.524 | 0.677 | 0.738 | 0.752 | 0.77 | 0.765 | 1.01 | 0.995 | 0.831 | 1.03 | 0.837 | 0.743 | 0.475 | 0.654 | 0.503 | 0.365 |
| EMC-BAC-2 | 0.222 | 0.269 | 0.307 | 0.277 | 0.233 | 0.407 | 0.522 | 0.5 | 0.531 | 0.432 | 1.13 | 1.16 | 1.17 | 1.31 | 1.22 | 0.494 | 0.497 |  | 0.364 | 0.457 |
| SK-MES-1 | 0.891 | 0.97 | 0.77 | 0.276 | 0.211 | 0.779 | 0.759 | 0.718 | 0.784 | 0.654 | 0.657 | 0.581 | 0.769 | 0.847 | 0.585 | 0.986 | 0.968 | 1.04 | 1.04 | 0.524 |
| H3255 | 0.598 | 0.475 | 0.61 | 0.646 | 0.196 | 0.498 | 0.526 | 0.605 | 0.564 | 0.564 | 0.841 | 0.801 | 0.841 | 0.911 | 0.866 | 0.716 |  | 0.656 | 0.742 | 0.742 |
| NCI-H1651 | 0.597 | 0.793 | 0.465 | 0.552 | 0.297 | 0.191 | 0.185 | 0.2 | 0.214 | 0.202 | 0.966 | 0.881 | 0.984 | 0.761 | 0.779 | 0.607 | 0.537 | 0.558 | 0.448 | 0.464 |
| NCI-H1395 | 0.647 | 0.832 | 0.888 | 0.791 | 0.522 | 0.485 | 0.532 |  | 0.568 | 0.552 | 0.72 | 0.691 | 0.634 | 0.772 | 0.719 | 1.11 | 0.813 | 0.625 | 0.594 | 0.62 |
| NCI-H23 | 0.315 | 0.338 | 0.362 | 0.301 | 0.338 | 0.291 | 0.289 | 0.389 | 0.356 | 0.338 | 0.218 | 0.21 | 0.241 | 0.223 | 0.226 | 0.596 | 0.411 | 0.583 | 0.473 | 0.506 |
| NCI-H1355 | 0.371 | 0.573 | 0.485 | 0.404 | 0.359 | 0.72 | 0.761 | 0.759 | 0.83 | 0.807 | 0.744 | 0.721 | 0.724 | 0.767 | 0.766 | 0.654 | 0.588 | 0.51 | 0.478 | 0.469 |
